Source: publication PMC9818021, “Targets, Mechanisms and Cytotoxicity of Half-Sandwich Ir(III) Complexes Are Modulated by Structural Modifications on the Benzazole Ancillary Ligand” (Cancers, 2022)
Like-named read-outs stand apart in the source and are kept apart here.

Experiments:
[1] = Acid dissociation constants from absorbance vs pH; format: physicochemical; details: for pKa: free ligand; for pKa1: water dissociation to give the hydroxo complex; for pKa2: NH dissociation to give the N anion
Experimental: The pH measurements were carried out with a Metrohm 16 DMS Titrino pH meter fitted out with a combined glass electrode with a 3 M KCl solution as a liquid junction. HClO4 and NaOH solution were used to adjust the pH.
(§1) The UV-vis measurements were performed with a Hewlett-Packard 8453A (Agilent Technologies, Palo Alto, CA, USA) photodiode array spectrophotometer with a Peltier temperature control system. Titrations were carried out at 25 °C by adding increasing amounts of DNA solution to the iridium complex solution. The pKa values were measured by analysing the absorbance change of iridium complex solutions recorded at different pH values. The melting experiments were carried out using a DNA solution varying the CIr-complex/CDNA (CD/CP) ratio from 0 to 1, keeping CP constant and recording the absorbance spectra while heating from 25 to 90 °C at 0.3 °C/min.

[2] = Aquation/solvolysis kinetics (UV-vis); format: physicochemical
Experimental: Aquation/solvolysis. Chloride displacement was qualitatively monitored by ^1H-NMR for some of the complexes in DMSO-d6. The replacement of the chloride by a DMSO molecule was observed as some peaks shifted and some new peaks appeared corresponding to the methyl groups of the DMSO molecule. Aquation/solvolysis equilibria were studied by kinetic UV-vis measurements.
as §1
The slow kinetic measurements were performed with the previous spectrophotometer while the fast kinetic measurements were performed in a stopped flow Bio-Logic SFM-300 spectrophotometer with an absorbance detection system and dead time below 3 ms. The kinetic curves, obtained averaging out at least five shots, were analysed with the Jandel (AISN software, Mapleton, OR) fitting package.

[3] = test system: A2780cis (ovarian, acquired resistance to cisplatin); test: MTT cytotoxicity assay; format: cell-based, human; details: A2780cis, 48 h
Experimental: (§2) Cell culture. Epithelial ovarian carcinoma cells (A2780) that acquired resistance to cisplatin epithelial ovarian carcinoma cells (A2780cis), colon adenocarcinoma cells (SW480) and epithelial lung adenocarcinoma cells (A549) were provided by Sigma Aldrich. A549 and SW480 cells were grown in Dulbecco′s Modified Eagle′s Medium (DMEM), supplemented with 10% Fetal Bovine Serum (FBS) and 1% penicillin, streptomycin and 1% glutamine for A549 and 1% amphotericin B for SW480. The A2780 and A2780cis were grown in RPMI 1640 supplemented with 10% Fetal Bovine Serum (FBS), 1% glutamine and 1% penicillin, streptomycin and amphotericin B. All cells were incubated in a humidified incubator at 37 °C under a 5% CO2 atmosphere and grown in 100 mm culture dishes to approximately 70–80% confluence. For subculturing, cells were detached with Trypsin-EDTA (Sigma). A549-gal were derived from A549 cultured in glucose-free medium supplemented with 10 mM galactose (Sigma) for at least 10 passes.
(§3) Cytotoxicity. MTT Assay and IC50 estimation. The cytotoxicity of 1[C,NH-Cl], 2[C,NMe-Cl], 3[N,NH-Cl]Cl, 4[N,NMe-Cl]Cl, 5[CNH2,NH-Cl]Cl, 6[CNH2,S-Cl]Cl, 7[CO,NH-Cl] and 8[CO,S-Cl] in A2780, A2780cis, SW480 and A549 carcinoma cells was evaluated by the MTT colorimetric assay. Cells were seeded in 96-well plates at 5000 cells per well and incubated at 37 °C, 5% CO2. After 24 h, the medium was removed and replaced with fresh medium with different concentrations of the compounds under study, and they were incubated for 48 h. Final DMSO concentration was kept below 0.7% in wells. For a negative control, one sequence of cells was left untreated and for vehicle control, cells treated with DMSO were included. For cell viability experiments preincubating with NAC (N-Acetyl-L-Cysteine), the cells were pre-treated with NAC, 10 mM for 2 h before the incubation with complex 1[C,NH-Cl] for 24 h. Then, the medium was removed from the wells, and 100 µL MTT (5 mg/mL) was added. After an incubation time of 4 h, 100 μL of solubilizing detergent solution (SDS, 10% in HCL 0.01 M) was added and kept in the incubator overnight. Cell growth inhibition was detected by measuring the absorbance of each well at 595 nm using a BioTek Cytation5 microplate reader. Each test was repeated in quadruplicate in three independent experiments for each cell line. The percentage of survival cells was calculated using absorbance measurements compared with control and the IC50 estimation using Graph Pad Prism version 6.01.

[4] = test system: SW480 (colon adenocarcinoma cells); test: MTT cytotoxicity assay; format: cell-based, human; details: SW480, 48 h
Experimental: as §2, §3

[5] = test system: A2780 (epithelial ovarian carcinoma cells); test: MTT cytotoxicity assay; format: cell-based, human; details: A2780, 48 h
Experimental: as §2, §3

[6] = test system: A549 (epithelial lung adenocarcinoma cells); test: MTT cytotoxicity assay; format: cell-based, human; details: A549, 48 h
Experimental: as §2, §3

Qualitative solubility = format: physicochemical; details: 1-2 mg, solvent up to 1 mL
Experimental: Solubility. The solubility of the complexes was qualitatively assessed. Different solvents were added drop-by-drop while shaking to a small amount of complex (around 1–2 mg) in a vial until the solvent added exceeded 1 mL. Afterwards, it was checked if the solid was or not completely dissolved and/or if the solution got coloured.

## c1ccc(-c2nc3ccccc3[nH]2)cc1 [2-phenylbenzimidazole]
[1]; deprotonation of the pyridine type N atom, read-out: pKa1
  pKa: 5.2 ± 0.1
[1]; pyrrole type N atom, read-out: pKa2
  pKa: 11.8 ± 0.1

## C[S+](C)(=O)[Ir]1[O]c2ccccc2-c2sc3ccccc3[n+]21.Cc1c(C)c(C)[c-](C)c1C [8[CO,S-DMSO]+]
[2]; in DMSO
  kDMSO (Cl-complex to DMSO-complex): (3.11 ± 0.25) × 10^−4 s-1

## Cc1c(C)c(C)[c-](C)c1C.[OH2+][Ir]1[NH2+]c2ccccc2-c2sc3ccccc3[n+]21 [6[CNH2,S-H2O]2+]
[2]; aqueous solution
  kaq (Cl-complex to H2O-complex): (2.12 ± 0.01) × 10^−4 s-1
[1]
  pKa1: 8.70 ± 0.04

## Cc1c(C)c(C)[c-](C)c1C.Cn1c2[n+](c3ccccc31)[Ir]([OH2+])[n+]1ccccc1-2 [4[N,NMe-H2O]2+]
[1]
  pKa1: 7.48 ± 0.01

## Cc1c(C)c(C)[c-](C)c1C.Cn1c2[n+](c3ccccc31)[Ir]([S+](C)(C)=O)[c]1ccccc1-2 [2[C,NMe-DMSO]+]
[1]; absorbance vs pH
  Acid-base equilibrium: did not exhibit any acid–base equilibrium

## Cc1c(C)c(C)[c-](C)c1C.[OH2+][Ir]1[NH2+]c2ccccc2-c2[nH]c3ccccc3[n+]21 [5[CNH2,NH-H2O]2+]
[1]
  pKa2: 11.30 ± 0.17
  pKa1: 7.48 ± 0.04

## N.N.[Cl][Pt][Cl] [cisPt, cisplatin, reference compound]
[3]
  IC50: 60 ± 1 µM
[4]
  IC50: 34 ± 1 µM
[5]
  IC50: 7 ± 1 µM
[6]
  IC50: 33 ± 6 µM

## Cc1c(C)c(C)[c-](C)c1C.[OH2+][Ir]1[n+]2ccccc2-c2[nH]c3ccccc3[n+]21 [3[N,NH-H2O]2+]
[1]
  pKa2: 8.44 ± 0.06
  pKa1: 6.08 ± 0.04

## C[S+](C)(=O)[Ir]1[c]2ccccc2-c2[nH]c3ccccc3[n+]21.Cc1c(C)c(C)[c-](C)c1C.[Cl-] [1[C,NH-DMSO]+, [(η^5-Cp*)Ir(DMSO)(κ^2-N,C-pbim)]Cl]
Qualitative solubility
  Solubility in water: soluble in dimethyl sulfoxide and water
[1]
  pKa2: 8.44 ± 0.03

## C[S+](C)(=O)[Ir]1[O]c2ccccc2-c2[nH]c3ccccc3[n+]21.Cc1c(C)c(C)[c-](C)c1C [7[CO,NH-DMSO]+]
[1]
  pKa2: 9.06 ± 0.06
